Converted amounts (≈) assume the structure as drawn.
Assays:
Blattella germanica [1] = assay: Ratio of LT50 for Blattella germanica Muncie second instars to LT50 for Blattella germanica Jwax second instars; type: functional
Blattella germanica [2] = assay: Ratio of LT50 for Blattella germanica Muncie fifth instars to LT50 for Blattella germanica Jwax fifth instars; type: functional
HCT-8 = assay: Cytotoxicity against human HCT8 cells; type: functional, cell-based
Bel-7402 = assay: Cytotoxicity against human Bel-7402 cells; type: functional, cell-based
KB = assay: Cytotoxicity against human KB cells; type: functional, cell-based; conditions: for IC50: Homo sapiens, KB
Artemia = assay: Toxicity in brine shrimp; type: organism-based; conditions: in vivo
MCF7 = assay: Cytotoxicity against human MCF7 cells; type: functional; conditions: for EC50: Homo sapiens, MCF7, read-out: ED50 (the source's name)
A549 = assay: Cytotoxicity against human A549 cells; type: functional
PC-3 = assay: Cytotoxicity against human PC-3 cells; type: functional; conditions: for EC50: Homo sapiens, PC-3, read-out: ED50 (the source's name)
MIA PaCa-2 = assay: Cytotoxicity against human MIA PaCa2 cells; type: functional; conditions: for EC50: Homo sapiens, MIA PaCa-2, read-out: ED50 (the source's name)
A498 = assay: Cytotoxicity against human A-498 cells; type: functional; conditions: for EC50: Homo sapiens, A498, read-out: ED50 (the source's name)
HT-29 = assay: Cytotoxicity against human HT-29 cells; type: functional; conditions: for EC50: Homo sapiens, HT-29, read-out: ED50 (the source's name)
HL-60 = assay: Cytotoxicity against human HL-60 cells; type: functional, cell-based
A2780 = assay: Cytotoxicity against human A2780 cells; type: functional, cell-based

CCCCCCCCCCC(O)C1CCC(C2CCC(C(O)CCCCCCCC[C@H](O)CC3=C[C@@H](C)OC3=O)O2)O1 (some centres undefined) [ASIMICIN]
Ratio (Blattella germanica [1]): 0.9 | Ratio (Blattella germanica [2]): 1.6

CCCCCCCCCCCC[C@H](O)[C@@H]1CC[C@H]([C@H](O)CCCCC(O)CCCCC[C@@H](O)CC2=C[C@@](C)(O)OC2=O)O1 (some centres undefined)
IC50 (HCT-8): < 10 mg/L

CCCCCCCCCCCC[C@H](O)[C@H](O)CC[C@H](O)[C@@H]1CC[C@@H](C[C@H](O)CCCCC[C@@H](O)CC2=C[C@@](C)(O)OC2=O)O1 [GARDNERININ]
IC50 (Bel-7402): > 10 mg/L | IC50 (HCT-8): 6.6 mg/L (≈ 10.5 µM) | IC50 (KB): > 10 mg/L

CCCCCCCCCCCCCC[C@@H](O)[C@H](O)CC[C@H](O)[C@@H]1CC[C@@H](CCCCC[C@@H](O)CC2=C[C@H](C)OC2=O)O1 [GIGANTETROCIN A]
Ratio (Blattella germanica [1]): 0.9 | Ratio (Blattella germanica [2]): 1.5

CCCCCCCCCC[C@@H](O)[C@H]1CC[C@H]([C@H]2CC[C@H]([C@H](O)CCCCCCCC[C@@H](O)CC3=C[C@H](C)OC3=O)O2)O1 [PARVIFLORIN]
Ratio (Blattella germanica [1]): 0.9 | Ratio (Blattella germanica [2]): 1.5

CCCCC[C@H](O)[C@H](O)CCC[C@H](O)[C@H]1CC[C@H]([C@H]2CC[C@H]([C@H](O)CCCCCCCCCCCCC3=C[C@H](C)OC3=O)O2)O1 (stereo in doubt; 97) [PURPUREDIOLIN]
LC50 (Artemia): 7 ×10⁻² ug/ml | EC50 (MCF7): 0.92 mg/L (≈ 1.44 µM) | ED50 (A549): 4.4 ×10⁻¹ ug/ml | ED50 (PC-3): 3.5 ×10⁻¹ ug/ml | ED50 (MIA PaCa-2): 1.4 µg/mL (≈ 2.19 µM) | EC50 (A498): 1.4 mg/L (≈ 2.19 µM)

CCCCCCCCCC[C@@H](O)[C@H]1CC[C@@H]([C@H]2CC[C@H]([C@H](O)CCCCCCCCCC[C@@H]3CC(CC(C)=O)C(=O)O3)O2)O1 (mixture of isomers)
EC50 (HT-29): 1.6 mg/L | LC50 (Artemia): 2 ×10⁻² ug/ml | ED50 (MCF7): 1.3 ×10⁻⁸ ug/ml | ED50 (A549): 4.6 ×10⁻⁴ ug/ml | EC50 (PC-3): 2.8 mg/L | EC50 (MIA PaCa-2): 0.069 mg/L | EC50 (A498): 0.49 mg/L

CCCCCCCCCCCC[C@H](O)[C@@H]1CC[C@@H]([C@@H](O)CCCCCCC(O)CCCCC[C@@H](O)CC2=C[C@H](C)OC2=O)O1 (some centres undefined) [ANNOMONTACIN]
Ratio (Blattella germanica [1]): 0.6 | Ratio (Blattella germanica [2]): 0.2

CNC(=O)Oc1cccc2c1OC(C)(C)O2 [BENDIOCARB]
Ratio (Blattella germanica [1]): 2.5 | Ratio (Blattella germanica [2]): 0.9

CCCCCCCCCC[C@@H](O)[C@H]1CC[C@H]([C@H]2CC[C@H]([C@H](O)CCCCCCCC[C@@H](O)CCCC3=C[C@H](C)OC3=O)O2)O1 [BULLACIN]
EC50 (HT-29): 0.0045 mg/L (≈ 0.00722 µM) | LC50 (Artemia): 1.9 ×10⁻² ug/ml | ED50 (MCF7): 2.5 ×10⁻⁷ ug/ml | ED50 (A549): 9 ×10⁻⁷ ug/ml | EC50 (PC-3): > 1 mg/L | EC50 (MIA PaCa-2): 0.41 mg/L (≈ 0.658 µM) | EC50 (A498): > 1 mg/L

CCCCCCCCCCCC[C@@H](O)[C@H]1CC[C@H]([C@H](O)CCCC[C@H](O)CCCCC[C@H](CC2=C[C@@](C)(O)OC2=O)OC(C)=O)O1 [DONNAIENIN C]
IC50 (Bel-7402): 7.1 mg/L (≈ 10.8 µM) | IC50 (HCT-8): > 10 mg/L | IC50 (KB): > 10 mg/L

CC1(C)C(C=C(Cl)Cl)C1C(=O)OC(C#N)c1cccc(Oc2ccccc2)c1 (stereo not drawn) [ALPHA-CYPERMETHRIN]
Ratio (Blattella germanica [1]): 2

CCCCCCCCCCCCCCCC[C@@H](O)[C@H](O)CCCCCCCCCCCCCCC1=C[C@H](C)OC1=O [TONKINELIN]
IC50 (HL-60): 1 mg/L (≈ 1.73 µM) | IC50 (A2780): > 10 mg/L | IC50 (HCT-8): 6.7 mg/L (≈ 11.6 µM) | IC50 (KB): > 10 mg/L

CC1(C)CNC(=NN=C(/C=C/c2ccc(C(F)(F)F)cc2)/C=C/c2ccc(C(F)(F)F)cc2)NC1 [HYDRAMETHYLNON]
Ratio (Blattella germanica [1]): 1 | Ratio (Blattella germanica [2]): 0.6

CCCCCC(O)CCCC[C@H](O)[C@@H]1CC[C@@H]([C@@H]2CC[C@H]([C@H](O)CCCCCCCCCCCCC3=C[C@H](C)OC3=O)O2)O1 (some centres undefined) [CAROLIN B]
ED50 (KB): 5 ×10⁻⁶ ug/ml

CCCCCCCCCC[C@H](O)[C@H]1CC[C@H]([C@H]2CC[C@H]([C@H](O)CCCCCCCCCC[C@@H]3CC(CC(C)=O)C(=O)O3)O2)O1 (mixture of isomers) [BULLATACINONE]
EC50 (HT-29): 1.7 mg/L | LC50 (Artemia): 7.4 ×10⁻² ug/ml | EC50 (MCF7): 1.8 mg/L | EC50 (A549; Homo sapiens, A549, read-out: ED50 (the source's name)): 1.9 mg/L | EC50 (PC-3): 2.6 mg/L | EC50 (MIA PaCa-2): 1.1 mg/L | EC50 (A498): 1.8 mg/L

CCCCCCCCCC[C@H](O)[C@@H](O)CCCC[C@H]1CC[C@H]([C@H]2CC[C@H]([C@H](O)CCCCC[C@@H](O)CC3=C[C@H](C)OC3=O)O2)O1 (stereo in doubt) [GLACIN B]
ED50 (HT-29): 1.9 ×10⁻² ug/ml | LC50 (Artemia): 3.1 ×10⁻¹ ug/ml | ED50 (MCF7): 1.8 ×10⁻³ ug/ml | ED50 (A549): 1.6 ×10⁻¹ ug/ml | ED50 (PC-3): 1.2 µg/mL (≈ 1.88 µM) | ED50 (MIA PaCa-2): 2.8 ×10⁻¹ ug/ml | ED50 (A498): 1.4 mg/L (≈ 2.19 µM)
